Patent US10703755B2, “Substituted purine derivative” (SUMITOMO DAINIPPON PHARMA CO., LTD., priority 2016, dated 2020)

Target: human TLR7 (Homo sapiens (Human), UniProt Q9NYK1)
Experiment: Test for evaluating the inhibition of the activation of human TLR7 (SEAP reporter, TLR7/NF-κB/SEAPorter HEK293 cell)
Format: cell-based
Details: R-848 200 nmol/L; for inhibitory effect against TLR7 in the test for evaluating inhibition of the activation of TLR7: SEAP activity, result in words; for IC50: SEAP reporter
How it was run: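 The readout is secreted alkaline phosphatase under NF-κB response-element control in TLR7/NF-κB/SEAPorter HEK293 cells, which stably express full-length human TLR7. Cells were plated at 5×10^4 per well and grown overnight at 37° C, 5% CO2, in DMEM/10% FBS/blasticidin.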

Chain of human TLR7 (Q9NYK1 27-1049): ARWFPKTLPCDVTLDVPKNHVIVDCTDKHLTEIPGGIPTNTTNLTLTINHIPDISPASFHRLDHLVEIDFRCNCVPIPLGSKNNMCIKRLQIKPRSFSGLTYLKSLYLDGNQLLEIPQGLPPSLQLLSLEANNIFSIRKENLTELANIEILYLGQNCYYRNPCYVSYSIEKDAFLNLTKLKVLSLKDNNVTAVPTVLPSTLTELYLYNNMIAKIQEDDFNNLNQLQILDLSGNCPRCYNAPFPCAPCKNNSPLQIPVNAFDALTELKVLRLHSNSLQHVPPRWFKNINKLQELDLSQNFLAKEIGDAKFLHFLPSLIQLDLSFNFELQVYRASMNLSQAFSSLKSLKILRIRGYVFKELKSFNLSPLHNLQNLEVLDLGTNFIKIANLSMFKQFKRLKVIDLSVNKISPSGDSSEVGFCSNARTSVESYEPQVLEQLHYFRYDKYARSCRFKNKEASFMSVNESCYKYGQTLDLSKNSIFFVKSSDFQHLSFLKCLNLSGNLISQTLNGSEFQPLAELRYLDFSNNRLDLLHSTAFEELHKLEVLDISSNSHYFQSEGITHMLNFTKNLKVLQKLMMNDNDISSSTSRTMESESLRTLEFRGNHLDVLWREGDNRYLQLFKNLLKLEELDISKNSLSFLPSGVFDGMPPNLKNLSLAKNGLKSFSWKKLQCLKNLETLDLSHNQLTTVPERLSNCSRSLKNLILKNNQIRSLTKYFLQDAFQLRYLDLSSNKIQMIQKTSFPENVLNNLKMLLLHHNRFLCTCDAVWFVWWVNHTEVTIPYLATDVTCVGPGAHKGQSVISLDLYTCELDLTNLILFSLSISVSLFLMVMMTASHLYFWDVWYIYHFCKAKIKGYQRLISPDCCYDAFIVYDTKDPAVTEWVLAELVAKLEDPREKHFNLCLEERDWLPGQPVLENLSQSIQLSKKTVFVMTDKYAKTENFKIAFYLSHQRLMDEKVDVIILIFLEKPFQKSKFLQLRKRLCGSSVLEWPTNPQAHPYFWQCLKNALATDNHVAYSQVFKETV

Compound	inhibitory effect against TLR7 in the test for evaluating inhibition of the activation of TLR7	IC50
COc1nc(C)c2nc(-c3cncc(C#N)c3)n(Cc3ccc(C4CCN(C)CC4)cc3F)c2n1 [Example 288]	potent inhibitory effect against TLR7	0.062 µM
CCN1CCC(c2ccc(Cn3c(-c4cncc(C#N)c4)nc4c(C)nc(OC)nc43)c(F)c2)CC1 [Example 289, 5-{9-[4-(1-ethylpiperidin-4-yl)-2-fluorobenzyl]-2-methoxy-6-methyl-9H-purin-8-yl}pyridine-3-carbonitrile]	potent inhibitory effect against TLR7	0.03 µM
COc1nc(C)c2nc(-c3cncc(F)c3)n(Cc3ccc(C4CCN(C)C4)cc3F)c2n1 (stereo not shown) [Example 290, 9-[2-fluoro-4-(1-methylpyrrolidin-3-yl)benzyl]-8-(5-fluoropyridin-3-yl)-2-methoxy-6-methyl-9H-purine]	potent inhibitory effect against TLR7	0.022 µM
CCN1CCC(c2ccc(Cn3c(-c4cncc(F)c4)nc4c(C)nc(OC)nc43)c(F)c2)C1 (stereo not shown) [Example 291, 9-[4-(1-ethylpyrrolidin-3-yl)-2-fluorobenzyl]-8-(5-fluoropyridin-3-yl)-2-methoxy-6-methyl-9H-purine]	potent inhibitory effect against TLR7	0.017 µM
COc1nc(C)c2nc(-c3cncnc3)n(Cc3ccc(OC4CC5CCC(C4)N5C)cc3F)c2n1 (stereo not drawn) [Example 294, 9-(2-fluoro-4-{[(3-endo)-8-methyl-8-azabicyclo[3.2.1]oct-3-yl]oxy}benzyl)-2-methoxy-6-methyl-8-(pyrimidin-5-yl)-9H-purine]	potent inhibitory effect against TLR7	0.019 µM
COc1nc(C)c2nc(-c3cncc(C#N)c3)n(Cc3ccc(OC4CC5CCC(C4)N5C)cc3F)c2n1 (stereo not drawn) [Example 295, 5-[9-(2-fluoro-4-{[(3-endo)-8-methyl-8-azabicyclo[3.2.1]oct-3-yl]oxy}benzyl)-2-methoxy-6-methyl-9H-purin-8-yl]pyridine-3-carbonitrile]	potent inhibitory effect against TLR7	0.013 µM
CCN1C2CCC1CC(Oc1ccc(Cn3c(-c4cncc(C#N)c4)nc4c(C)nc(OC)nc43)c(F)c1)C2 (stereo not drawn) [Example 296, 5-[9-(4-{[(3-endo)-8-ethyl-8-azabicyclo[3.2.1]oct-3-yl]oxy}-2-fluorobenzyl)-2-methoxy-6-methyl-9H-purin-8-yl]pyridine-3-carbonitrile]	potent inhibitory effect against TLR7	0.021 µM
COc1nc(C)c2nc(-c3cccnc3)n(Cc3ccc(OC4CC5CCC(C4)N5C)cc3F)c2n1 (stereo not drawn) [Example 297, 9-(2-fluoro-4-{[(3-endo)-8-methyl-8-azabicyclo[3.2.1]oct-3-yl]oxy}benzyl)-2-methoxy-6-methyl-8-(pyridin-3-yl)-9H-purine]	potent inhibitory effect against TLR7	0.05 µM
COc1cncc(-c2nc3c(C)nc(OC)nc3n2Cc2ccc(C3CN4CCC3CC4)cc2F)c1 (stereo not shown) [Example 302]	potent inhibitory effect against TLR7	0.067 µM
COc1nc(C)c2nc(-c3cccnc3)n(Cc3ccc(C4CN5CCC4CC5)cc3F)c2n1 (stereo not shown) [Example 303, 9-[4-(1-azabicyclo[2.2.2]oct-3-yl)-2-fluorobenzyl]-2-methoxy-6-methyl-8-(pyridin-3-yl)-9H-purine]	potent inhibitory effect against TLR7	0.007 µM
COc1nc(C)c2nc(-c3cnccc3C)n(Cc3ccc(C4CN5CCC4CC5)cc3F)c2n1 (stereo not shown) [Example 304, 9-[4-(1-azabicyclo[2.2.2]oct-3-yl)-2-fluorobenzyl]-2-methoxy-6-methyl-8-(4-methylpyridin-3-yl)-9H-purine]	potent inhibitory effect against TLR7	0.004 µM
COc1nc(C)c2nc(-c3cncc(C)c3)n(Cc3ccc(C4CN5CCC4CC5)cc3F)c2n1 (stereo not shown) [Example 305, 9-[4-(1-azabicyclo[2.2.2]oct-3-yl)-2-fluorobenzyl]-2-methoxy-6-methyl-8-(5-methylpyridin-3-yl)-9H-purine]	potent inhibitory effect against TLR7	0.005 µM
COc1nc(C)c2nc(-c3ccc(C)nc3)n(Cc3ccc(C4CN5CCC4CC5)cc3F)c2n1 (stereo not shown) [Example 306]	potent inhibitory effect against TLR7	0.04 µM
COc1nc(C)c2nc(-c3cncc(F)c3)n(Cc3ccc(C4CN5CCC4CC5)cc3F)c2n1 (stereo not shown) [Example 314]	potent inhibitory effect against TLR7	0.008 µM
CCOc1nc(C)c2nc(-c3cncc(F)c3)n(Cc3cc(OC)c(C4CN5CCC4CC5)cc3F)c2n1 (stereo not shown) [Example 317]	–	1.61 µM
COc1nc(C)c2nc(-c3cncc(C#N)c3)n(Cc3ccc(O[C@@H]4CN5CCC4CC5)cc3F)c2n1 [Example 322, 5-(9-{4-[(3S)-1-azabicyclo[2.2.2]oct-3-yloxy]-2-fluorobenzyl}-2-methoxy-6-methyl-9H-purin-8-yl)pyridine-3-carbonitrile]	potent inhibitory effect against TLR7	0.013 µM
COc1nc(C)c2nc(-c3cncnc3)n(Cc3ccc(O[C@@H]4CN5CCC4CC5)cc3F)c2n1 [Example 323, 9-{4-[(3S)-1-azabicyclo[2.2.2]oct-3-yloxy]-2-fluorobenzyl}-2-methoxy-6-methyl-8-(pyrimidin-5-yl)-9H-purine]	potent inhibitory effect against TLR7	0.07 µM

Further lines, results first:

inhibitory effect against TLR7 in the test for evaluating inhibition of the activation of TLR7	IC50	Compound
potent inhibitory effect against TLR7	0.039 µM	COc1nc(C)c2nc(-c3cccnc3)n(Cc3ccc(C4CCN(C)CC4)cc3F)c2n1 [Example 292, 9-[2-fluoro-4-(1-methylpiperidin-4-yl)benzyl]-2-methoxy-6-methyl-8-(pyridin-3-yl)-9H-purine]
potent inhibitory effect against TLR7	0.018 µM	CCN1CCC(c2ccc(Cn3c(-c4cccnc4)nc4c(C)nc(OC)nc43)c(F)c2)CC1 [Example 293, 9-[4-(1-ethylpiperidin-4-yl)-2-fluorobenzyl]-2-methoxy-6-methyl-8-(pyridin-3-yl)-9H-purine]
potent inhibitory effect against TLR7	0.028 µM	CCOc1nc(C)c2nc(-c3cncc(F)c3)n(Cc3cnn(CCN4CCN(C)CC4)c3)c2n1 [Example 300]
potent inhibitory effect against TLR7	0.057 µM	CCOc1nc(C)c2nc(-c3cncc(F)c3)n(Cc3ccc(C4CN(C)CCO4)cc3F)c2n1 (stereo not shown) [Example 307]
potent inhibitory effect against TLR7	0.027 µM	COc1nc(C)c2nc(-c3cncc(C#N)c3)n(Cc3ccc(CN4C[C@@H]5C[C@H]4CN5C)cc3F)c2n1 [Example 308, 5-[9-(2-fluoro-4-{[(1S,4S)-5-methyl-2,5-diazabicyclo[2.2.1]hept-2-yl]methyl}benzyl)-2-methoxy-6-methyl-9H-purin-8-yl]pyridine-3-carbonitrile]
potent inhibitory effect against TLR7	0.02 µM	CCN1C[C@@H]2C[C@H]1CN2Cc1ccc(Cn2c(-c3cncc(C#N)c3)nc3c(C)nc(OC)nc32)c(F)c1 [Example 309, 5-[9-(4-{[(1S,4S)-5-ethyl-2,5-diazabicyclo[2.2.1]hept-2-yl]methyl}-2-fluorobenzyl)-2-methoxy-6-methyl-9H-purin-8-yl]pyridine-3-carbonitrile]
potent inhibitory effect against TLR7	0.028 µM	COc1nc(C)c2nc(-c3cccnc3)n(Cc3ccc(CN4C[C@@H]5C[C@H]4CN5C)cc3F)c2n1 [Example 310, 9-(2-fluoro-4-{[(1S,4S)-5-methyl-2,5-diazabicyclo[2.2.1]hept-2-yl]methyl}benzyl)-2-methoxy-6-methyl-8-(pyridin-3-yl)-9H-purine]
potent inhibitory effect against TLR7	0.011 µM	CCOc1nc(C)c2nc(-c3cncc(C#N)c3)n(Cc3ccc(CN4C[C@@H]5C[C@H]4CN5C)cc3F)c2n1 [Example 311, 5-[2-ethoxy-9-(2-fluoro-4-{[(1S,4S)-5-methyl-2,5-diazabicyclo[2.2.1]hept-2-yl]methyl}benzyl)-6-methyl-9H-purin-8-yl]pyridine-3-carbonitrile]
potent inhibitory effect against TLR7	0.025 µM	CCOc1nc(C)c2nc(-c3cncnc3)n(Cc3ccc(CN4C[C@@H]5C[C@H]4CN5C)cc3F)c2n1 [Example 312, 2-ethoxy-9-(2-fluoro-4-{[(1S,4S)-5-methyl-2,5-diazabicyclo[2.2.1]hept-2-yl]methyl}benzyl)-6-methyl-8-(pyrimidin-5-yl)-9H-purine]
potent inhibitory effect against TLR7	0.008 µM	CCOc1nc(C)c2nc(-c3cncc(F)c3)n(Cc3ccc(CN4C[C@@H]5C[C@H]4CN5C)cc3F)c2n1 [Example 313, 2-ethoxy-9-(2-fluoro-4-{[(1S,4S)-5-methyl-2,5-diazabicyclo[2.2.1]hept-2-yl]methyl}benzyl)-8-(5-fluoropyridin-3-yl)-6-methyl-9H-purine]
–	1.52 µM	CCOc1nc(C)c2nc(-c3cncc(F)c3)n(Cc3ccc(Br)cc3OC)c2n1 [Example 325]
–	0.389 µM	COc1nc(C)c2nc(-c3cncc(F)c3)n(Cc3cc(Br)ccc3F)c2n1 [Example 326]
